Laboratory results reported in patent publication US20260274832A1, “COMPOUNDS AND THEIR USE IN TREATING CANCER” (ASTRAZENECA AB, priority 2023, published 2026).

Experiments:
[1] = molecular target: T1, AR (AR-full length) in LNCaP cells (Homo sapiens, UniProt P10275, T878A); assay: LNCaP Androgen Receptor Imaging Assay (immunofluorescence of endogenous nuclear AR); type: cell-based; conditions: 24 h incubation; for DC50: concentration giving 50% of maximum degradation of AR per curve fit, single experiment or average of two or more; for Dmax: LNCaP; for Dmax / LNCaP AR Degradation Dmax: maximum degradation observed, normalized as % of positive control (prior art AR PROTAC at 3 μM)
T1 construct: the prostate cancer cell line LNCaP (expressing AR-full length); endogenous in cells; host or cells: LNCaP
Protocol: This cell-based imaging assay uses immuno-fluorescence to measure endogenous nuclear AR staining in the prostate cancer cell line LNCaP (expressing AR-full length). The purpose of the assay is to identify compounds that regulate AR protein level according to the protocol laid out in the steps below.
(§1) All work was performed in a sterile tissue culture hood up to the point of cell fixation. LNCaP cells were cultured at 6-8×10^6 per T175 flask and split every 3-4 days. Medium: RPMI (R7638, VWR Sigma) containing 10% FCS and 1% glutamine. Cells were plated in black wall transparent bottom plates at a density of 12,000 cells (Cedex™ Cell counter, Beckmann & Coulter), 40 μL per well, using a Multidrop (ThermoFisher).
(§2) Cells were dosed with test compound diluted in DMSO using an Echo 555/655™ (Labcyte) and the final concentration of DMSO in the well was 0.3%. A neutral control (DMSO) and a positive AR degrader control at 3 μM (a prior art AR PROTAC) were included. The Echo uses acoustic technology to perform direct microplate-to-microplate transfers of DMSO compound solutions to assay plates. The system can be programmed to transfer volumes as low as 2.5 nL in multiple increments between microplates and in so doing generates a serial dilution of compound in the assay plate which is then back-filled to normalise the DMSO concentration across the dilution range. Compounds were dispensed as a 12 point dose response with indicated concentrations. The plates were incubated at 37° C./5% CO2 for 24 h and then fixed and stained as below. 40 μL of 8% paraformaldehyde solution (v/v) in phosphate buffered saline (PBS) was added on top of the media already in the well using a Multidrop to fix plates giving a final concentration of 4% PFA (v/v) for 20-30 minutes (keep in fume hood to minimise PFA exposure). After 20-30 mins, the plates were washed with 3×PBS using a BioTek washer in a fume hood. A shake out of remaining volume in the well was performed to ensure best removal of remaining PBS. At this plates could be stored in PBS after washing for at least 3 days at 4° C., if so, PBS was removed by the BioTek before continuing with the next step.
(§3) The cells were incubated with a Mouse monoclonal Anti-AR antibody AR441 (DAKO M3562) (1:1000), diluted in modified blocking buffer (PBS+1% BSA+0.1% TritonX); 15 μL/well for 2 h at RT. The plates were then washed with 3×PBS using a BioTek washer. A shake out of remaining volume in the well was performed to ensure best removal of remaining PBS. Cells were then incubated with Goat anti-mouse secondary antibody 488 (Invitrogen A11001) (1:500) and nuclear stain, DRAQ5 (Abcam Ab108410) (1:2000) diluted in modified blocking buffer for 45 mins at room temperature 15 μL/well. Plates are then washed with 3×PBS using a BioTek washer, without final aspiration, and sealed with black plate seals. Plates could be stored after staining for three days at 4° C. before read if required.
(§4) Plates are read using a Cellomics Cellinsight to measure the Androgen Receptor level in each well. The data is exported into Genedata to perform curve fitting analysis. All data are normalized as % of positive control and the BellFit method automatically determines the correct fit method based on the presence of hook effect, choosing the BellFit when there is a hook and HillFit when there is no hook. Down-regulation of AR is expressed as a DC50 value and determined by calculation of the concentration of compound that is required to give 50% of maximum degradation of AR as per the curve fit for that compound. The maximum degradation observed for each compound is expressed as Dmax. The AR degradation data for compounds is shown in the table below and may be a result from a single experiment or an average of two or more experiments.

[2] = molecular target: T2, AR (L702H) in LNCaP cells (Homo sapiens, UniProt P10275, L702H/T878A); assay: LNCaP Androgen Receptor L702H Imaging Assay (LNCaP cells engineered by CRISPR/Cas9); type: cell-based; conditions: LNCaP cells with AR L702H mutation, 24 h incubation; for DC50: concentration giving 50% of maximum degradation of AR (L702H) per curve fit; for Dmax: LNCaP; for Dmax / LNCaP AR (L702H) Degradation Dmax: maximum degradation observed, normalized as % of positive control
T2 construct: engineered to introduce the mutation L702H into the AR gene using CRISPR/Cas9; endogenous in cells; host or cells: LNCaP cells edited by CRISPR/Cas9 at the AR gene
Protocol: as §1, §2, §3, §4
At this stage, anti-androgen therapy is largely ineffective due to AR amplification, overexpression or point mutation. One of the point mutations observed in patient populations is L702H in the AR Ligand Binding Domain. LNCAP cells have been engineered to introduce the mutation L702H into the AR gene using CRISPR/Cas9. The previously described imaging-based AR assay will monitor nuclear AR (L702H) levels in these cells to identify compounds that regulate AR (L702H). […]

T1 sequence (P10275 whole entry T878A): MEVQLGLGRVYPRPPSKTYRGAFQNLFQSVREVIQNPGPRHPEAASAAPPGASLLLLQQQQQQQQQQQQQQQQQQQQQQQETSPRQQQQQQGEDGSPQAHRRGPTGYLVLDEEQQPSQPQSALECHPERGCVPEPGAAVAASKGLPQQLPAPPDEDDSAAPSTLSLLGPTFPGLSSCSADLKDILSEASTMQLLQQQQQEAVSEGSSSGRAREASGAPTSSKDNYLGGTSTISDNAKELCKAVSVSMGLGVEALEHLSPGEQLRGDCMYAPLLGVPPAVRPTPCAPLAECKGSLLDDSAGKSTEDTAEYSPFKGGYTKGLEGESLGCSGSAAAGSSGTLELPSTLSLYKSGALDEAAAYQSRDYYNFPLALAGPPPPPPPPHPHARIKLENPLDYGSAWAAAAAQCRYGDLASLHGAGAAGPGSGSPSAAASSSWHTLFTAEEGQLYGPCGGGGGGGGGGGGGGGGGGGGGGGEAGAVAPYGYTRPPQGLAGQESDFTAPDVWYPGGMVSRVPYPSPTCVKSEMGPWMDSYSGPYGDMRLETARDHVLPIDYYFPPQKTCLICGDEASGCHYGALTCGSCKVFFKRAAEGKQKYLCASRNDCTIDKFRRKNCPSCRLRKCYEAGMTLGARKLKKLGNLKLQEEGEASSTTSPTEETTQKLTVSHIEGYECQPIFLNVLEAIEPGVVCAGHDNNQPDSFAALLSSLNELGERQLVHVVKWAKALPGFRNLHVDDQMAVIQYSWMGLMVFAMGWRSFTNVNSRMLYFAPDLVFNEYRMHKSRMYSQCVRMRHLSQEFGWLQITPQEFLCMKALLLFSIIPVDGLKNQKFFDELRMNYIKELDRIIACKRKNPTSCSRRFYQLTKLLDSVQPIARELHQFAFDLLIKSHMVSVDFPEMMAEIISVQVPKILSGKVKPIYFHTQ
T1 sequence (Q96SW2 whole entry partner): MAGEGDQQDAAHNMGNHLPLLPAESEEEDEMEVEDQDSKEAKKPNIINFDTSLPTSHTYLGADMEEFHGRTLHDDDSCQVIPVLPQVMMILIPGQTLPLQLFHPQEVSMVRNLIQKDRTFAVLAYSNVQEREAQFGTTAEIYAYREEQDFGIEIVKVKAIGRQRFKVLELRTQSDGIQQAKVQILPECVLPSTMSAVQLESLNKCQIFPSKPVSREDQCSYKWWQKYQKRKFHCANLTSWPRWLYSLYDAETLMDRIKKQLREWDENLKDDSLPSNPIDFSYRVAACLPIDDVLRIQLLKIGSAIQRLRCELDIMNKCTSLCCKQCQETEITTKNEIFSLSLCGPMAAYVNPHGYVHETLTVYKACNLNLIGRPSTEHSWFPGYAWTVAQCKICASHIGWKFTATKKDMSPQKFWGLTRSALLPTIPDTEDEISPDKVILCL
T2 sequence (P10275 whole entry L702H/T878A): as the sequence (P10275 whole entry T878A) above, with L702H counted along it
T2 sequence (Q96SW2 whole entry partner): as the sequence (Q96SW2 whole entry partner) above

Structure (SMILES) | DC50 [1] [nM] | Dmax [1] [%] | DC50 [2] [nM] | Dmax [2] [%] | LNCaP AR Degradation Dmax [1] [%] | LNCaP AR (L702H) Degradation Dmax [2] [%]
N#Cc1c[nH]c2c(N3CCC(c4ccc(N5CCC(CN6CCN(c7ccc8c(c7)CN(C7CCC(=O)NC7=O)C8=O)CC6)CC5)cc4)CC3)ccc(F)c12 (single isomer, unassigned) [Example 3, 7-(4-{4-[4-({4-[2-(2,6-Dioxopiperidin-3-yl)-1-oxo-2,3-dihydro-1H-isoindol-5-yl]piperazin-1-yl}methyl)piperidin-1-yl]phenyl}piperidin-1-yl)-4-fluoro-1H-indole-3-carbonitrile] | 18 | 85 | 17 | 99 |  | 
N#Cc1c[nH]c2c(N3CCC(c4ccc(N5CCC(CN6CCN(c7ccc8c(c7)CN(C7CCC(=O)NC7=O)C8=O)CC6)CC5)cc4)CC3)ccc(F)c12 (single isomer, unassigned) [Example 4, 7-(4-{4-[4-({4-[2-(2,6-Dioxopiperidin-3-yl)-1-oxo-2,3-dihydro-1H-isoindol-5-yl]piperazin-1-yl}methyl)piperidin-1-yl]phenyl}piperidin-1-yl)-4-fluoro-1H-indole-3-carbonitrile] | 6 |  | 5 |  | 96 | 106
COc1cc(N2CCN(CC3CCN(c4ccc(C5CCN(c6ccc(Cl)c7c(C#N)c[nH]c67)CC5)cc4)CC3)CC2)cc2c1C(=O)N(C1CCC(=O)NC1=O)C2 (single isomer, unassigned) [Example 16, 4-Chloro-7-[4-(4-{4-[(4-{2-[(3R*)-2,6-dioxopiperidin-3-yl]-7-methoxy-1-oxo-2,3-dihydro-1H-isoindol-5-yl}piperazin-1-yl)methyl]piperidin-1-yl}phenyl)piperidin-1-yl]-1H-indole-3-carbonitrile] | 12 |  | 24 | 84 | 77 | 
COc1cc(N2CCN(CC3CCN(c4ccc(C5CCN(c6ccc(Cl)c7c(C#N)c[nH]c67)CC5)cc4)CC3)CC2)cc2c1C(=O)N(C1CCC(=O)NC1=O)C2 (single isomer, unassigned) [Example 17, 4-Chloro-7-[4-(4-{4-[(4-{2-[(3S*)-2,6-dioxopiperidin-3-yl]-7-methoxy-1-oxo-2,3-dihydro-1H-isoindol-5-yl}piperazin-1-yl)methyl]piperidin-1-yl}phenyl)piperidin-1-yl]-1H-indole-3-carbonitrile] | 3 |  | 4 |  | 100 | 102
N#Cc1c[nH]c2c(N3CCC(c4ccc(N5CCC(CN6CCN(c7ccc8c(c7)CN(C7CCC(=O)NC7=O)C8=O)CC6)CC5)cc4)CC3)ccc(Cl)c12 (single isomer, unassigned) [Example 18, 4-Chloro-7-[4-(4-{4-[(4-{2-[(3R*)-2,6-dioxopiperidin-3-yl]-1-oxo-2,3-dihydro-1H-isoindol-5-yl}piperazin-1-yl)methyl]piperidin-1-yl}phenyl)piperidin-1-yl]-1H-indole-3-carbonitrile] | 14 | 93 | 18 | 96 |  | 
N#Cc1c[nH]c2c(N3CCC(c4ccc(N5CCC(CN6CCN(c7ccc8c(c7)CN(C7CCC(=O)NC7=O)C8=O)CC6)CC5)cc4)CC3)ccc(Cl)c12 (single isomer, unassigned) [Example 19, 4-Chloro-7-[4-(4-{4-[(4-{2-[(3S*)-2,6-dioxopiperidin-3-yl]-1-oxo-2,3-dihydro-1H-isoindol-5-yl}piperazin-1-yl)methyl]piperidin-1-yl}phenyl)piperidin-1-yl]-1H-indole-3-carbonitrile] | 4 |  | 5 |  | 102 | 102
COc1nc(N2CCN(CC3CCN(c4ccc(C5CCN(c6ccc(Cl)c7c(C#N)c[nH]c67)CC5)cc4)CC3)CC2)cc2c1C(=O)N(C1CCC(=O)NC1=O)C2 (single isomer, unassigned) [Example 35, 4-Chloro-7-[4-(4-{4-[(4-{2-[(3R*)-2,6-dioxopiperidin-3-yl]-4-methoxy-3-oxo-2,3-dihydro-1H-pyrrolo[3,4-c]pyridin-6-yl}piperazin-1-yl)methyl]piperidin-1-yl}phenyl)piperidin-1-yl]-1H-indole-3-carbonitrile] | 19 | 84 | 29 | 91 |  | 
COc1nc(N2CCN(CC3CCN(c4ccc(C5CCN(c6ccc(Cl)c7c(C#N)c[nH]c67)CC5)cc4)CC3)CC2)cc2c1C(=O)N(C1CCC(=O)NC1=O)C2 (single isomer, unassigned) [Example 36, 4-Chloro-7-[4-(4-{4-[(4-{2-[(3S*)-2,6-dioxopiperidin-3-yl]-4-methoxy-3-oxo-2,3-dihydro-1H-pyrrolo[3,4-c]pyridin-6-yl}piperazin-1-yl)methyl]piperidin-1-yl}phenyl)piperidin-1-yl]-1H-indole-3-carbonitrile] | 5 |  | 7 |  | 102 | 102
COc1nc(N2CCN(CC3CCN(c4ccc([C@@H]5CCCN(c6ccc(Cl)c7c(C#N)c[nH]c67)C5)cc4)CC3)CC2)cc2c1C(=O)N(C1CCC(=O)NC1=O)C2 (single isomer, unassigned) [Example 39, 4-Chloro-7-[(3S)-3-(4-{4-[(4-{2-[(3R*)-2,6-dioxopiperidin-3-yl]-4-methoxy-3-oxo-2,3-dihydro-1H-pyrrolo[3,4-c]pyridin-6-yl}piperazin-1-yl)methyl]piperidin-1-yl}phenyl)piperidin-1-yl]-1H-indole-3-carbonitrile] | 16 | 88 | 33 | 99 |  | 
N#Cc1c[nH]c2c(C3CCCN(c4ccc(N5CCC(CN6CCN(c7ccc8c(c7)CN(C7CCC(=O)NC7=O)C8=O)CC6)CC5)cc4)C3)ccc(Cl)c12 (single isomer, unassigned) [Example 94, 4-Chloro-7-[(3S*)-1-{4-[4-({4-[2-(2,6-dioxopiperidin-3-yl)-1-oxo-2,3-dihydro-1H-isoindol-5-yl]piperazin-1-yl}methyl)piperidin-1-yl]phenyl}piperidin-3-yl]-1H-indole-3-carbonitrile] | > 3000 |  |  |  |  | 
